Test results published in patent US6734182B2, “Aryl sulfonamides and sulfamide derivatives and uses thereof” (Synaptic Pharmaceutical Corporation, priority 1995, dated 2004).

Columns and labels:
[1] = target: T1, human 5HT2 receptor (Homo sapiens, UniProt P28223); experiment: Binding to human 5HT2 receptor ([3H]ketanserin); details: cloned human receptor
T1 construct: expressed in transfected cells; host or cells: COS-7 cells (DEAE-dextran); the same paragraph also names the deposited line L-NGC-5HT2 (ATCC CRL 10287)

[2] = target: T2, human Y5 receptor (Homo sapiens, UniProt Q15761); experiment: Radioligand binding to cloned human Y5 receptor (125I-PYY); details: cloned human Y5, stably transfected cells, read-out: Binding Affinity (K1 (nM) vs. 125I-PYY) Human Receptor Y5
T2 construct: expressed in transfected cells
T2 sequence (Q15761 1-445): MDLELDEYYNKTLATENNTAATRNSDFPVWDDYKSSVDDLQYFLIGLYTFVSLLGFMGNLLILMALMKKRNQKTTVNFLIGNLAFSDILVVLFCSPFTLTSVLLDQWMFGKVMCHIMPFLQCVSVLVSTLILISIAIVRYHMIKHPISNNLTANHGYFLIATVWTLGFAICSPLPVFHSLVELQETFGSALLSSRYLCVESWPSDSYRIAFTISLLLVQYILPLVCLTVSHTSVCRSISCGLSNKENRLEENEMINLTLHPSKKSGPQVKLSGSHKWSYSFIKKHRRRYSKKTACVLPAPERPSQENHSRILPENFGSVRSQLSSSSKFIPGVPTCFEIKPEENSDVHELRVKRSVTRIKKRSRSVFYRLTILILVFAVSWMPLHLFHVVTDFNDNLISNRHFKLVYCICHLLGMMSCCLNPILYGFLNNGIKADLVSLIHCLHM

[3] = target: T3, human 5HT1Dβ receptor (Homo sapiens, UniProt P28222); experiment: Binding to human 5HT1Dβ receptor ([3H]serotonin); details: cloned human receptor
T3 construct: expressed in transfected cells

[4] = target: T4, human Y1 receptor (Homo sapiens, UniProt P25929); experiment: Radioligand binding to cloned human Y1 receptor (125I-PYY); details: cloned human Y1, stably transfected cells, read-out: Binding Affinity (K1 (nM) vs. 125I-PYY) Human Receptor Y1
T4 construct: expressed in transfected cells
T4 sequence (P25929 1-384): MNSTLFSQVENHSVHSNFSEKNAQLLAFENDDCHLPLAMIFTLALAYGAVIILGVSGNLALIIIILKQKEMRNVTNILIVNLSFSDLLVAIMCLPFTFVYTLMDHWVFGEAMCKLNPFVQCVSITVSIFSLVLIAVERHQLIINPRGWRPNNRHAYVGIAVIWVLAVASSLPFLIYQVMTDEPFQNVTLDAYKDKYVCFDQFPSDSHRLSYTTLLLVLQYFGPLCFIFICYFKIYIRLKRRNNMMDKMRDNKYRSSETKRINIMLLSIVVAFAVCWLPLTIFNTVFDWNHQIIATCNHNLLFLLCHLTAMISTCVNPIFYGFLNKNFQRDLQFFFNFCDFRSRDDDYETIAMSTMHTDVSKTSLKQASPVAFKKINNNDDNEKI

[5] = target: T5, human α2A receptor (Homo sapiens, UniProt P08913); experiment: Binding to cloned human α2A adrenergic receptor ([3H]rauwolscine)
T5 construct: expressed in transfected cells

[6] = target: T6, human α2B receptor (Homo sapiens, UniProt P18089); experiment: Binding to cloned human α2B adrenergic receptor ([3H]rauwolscine)
T6 construct: expressed in transfected cells

[7] = target: T7, human 5HT1F receptor (Homo sapiens, UniProt P30939); experiment: Binding to human 5HT1F receptor ([3H]serotonin); details: cloned human receptor
T7 construct: expressed in transfected cells
T7 sequence (P30939 1-366): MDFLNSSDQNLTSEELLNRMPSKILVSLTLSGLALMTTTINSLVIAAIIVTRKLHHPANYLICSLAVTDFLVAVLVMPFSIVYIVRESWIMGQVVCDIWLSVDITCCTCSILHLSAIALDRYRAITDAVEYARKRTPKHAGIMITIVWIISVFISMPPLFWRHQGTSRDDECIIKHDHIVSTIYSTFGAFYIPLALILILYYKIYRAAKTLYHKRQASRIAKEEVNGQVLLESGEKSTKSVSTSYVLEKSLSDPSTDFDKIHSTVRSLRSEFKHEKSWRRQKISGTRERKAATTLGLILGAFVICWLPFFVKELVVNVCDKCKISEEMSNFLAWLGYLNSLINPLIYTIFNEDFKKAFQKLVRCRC
Protocol: 5HT1Dα, 5HT1Dβ, 5HT1E, 5HT1F Receptors: LM(tk−) clonal cell lines stably transfected with the genes encoding each of these 5HT receptor subtypes were prepared as described above. The cell line for the 5HT1Dα, receptor, designated as Ltk−8-30-84, was deposited on Apr. 17, 1990, and accorded ATCC Accession No. CRL 10421. The cell for the 5HT1Dβ receptor, designated as Ltk−11, was deposited on Apr. 17, 1990, and accorded ATCC Accession No. CRL 10422. The cell line for the 5HT1E receptor, designated 5 HT1E-7, was deposited on Nov. 6, 1991, and accorded ATCC Accession No. CRL 10913. The cell line for the 5HT1F receptor, designated L-5-HT1F, was deposited on Dec. 27, 1991, and accorded ATCC Accession No. ATCC 10957. Membrane preparations comprising these receptors were prepared as described below, and suspended in 50 mM Tris-HCl buffer (pH 7.4 at 37° C.) containing 10 mM MgCl2, 0.2 mM EDTA, 10 μM pargyline, and 0.1% ascorbate. The binding of compounds was determined in competition binding assays by incubation for 30 minutes at 37° C. in the presence of 5 nM [^3H) serotonin. Nonspecific binding was determined in the presence of 10 μM serotonin. The bound radioligand was separated by filtration through GF/B filters using a cell harvester.

[8] = target: T8, human α1b receptor (Homo sapiens, UniProt P35368); experiment: Binding to cloned human α1b adrenergic receptor
T8 construct: expressed in transfected cells

[9] = target: T9, human 5HT7 receptor (Homo sapiens, UniProt P34969); experiment: Binding to human 5HT7 receptor; details: cloned human receptor
T9 construct: expressed in transfected cells

[10] = target: T10, human α1d receptor (Homo sapiens, UniProt P25100); experiment: Binding to cloned human α1d adrenergic receptor
T10 construct: expressed in transfected cells

[11] = target: T11, human dopamine D3 receptor (Homo sapiens, UniProt P35462); experiment: Binding to human dopamine D3 receptor ([3H]spiperone); details: cloned human receptor
T11 construct: expressed in transfected cells; host or cells: COS-7 cells, transient

[12] = target: 5HT1a (Homo sapiens, UniProt P08908); experiment: Binding to cloned human 5HT1a receptor
[13] = target: T12, human α2C receptor (Homo sapiens, UniProt P18825); experiment: Binding to cloned human α2C adrenergic receptor ([3H]rauwolscine)
T12 construct: expressed in transfected cells

[14] = target: T13, human histamine H2 receptor (Homo sapiens, UniProt P25021); experiment: Binding to human histamine H2 receptor ([3H]tiotidine); details: cloned human receptor
T13 construct: expressed in transfected cells; host or cells: COS-7 cells, transient (DEAE-dextran), plasmid pcEXV-H2 (ATCC 75345)
T13 sequence (P25021 whole entry): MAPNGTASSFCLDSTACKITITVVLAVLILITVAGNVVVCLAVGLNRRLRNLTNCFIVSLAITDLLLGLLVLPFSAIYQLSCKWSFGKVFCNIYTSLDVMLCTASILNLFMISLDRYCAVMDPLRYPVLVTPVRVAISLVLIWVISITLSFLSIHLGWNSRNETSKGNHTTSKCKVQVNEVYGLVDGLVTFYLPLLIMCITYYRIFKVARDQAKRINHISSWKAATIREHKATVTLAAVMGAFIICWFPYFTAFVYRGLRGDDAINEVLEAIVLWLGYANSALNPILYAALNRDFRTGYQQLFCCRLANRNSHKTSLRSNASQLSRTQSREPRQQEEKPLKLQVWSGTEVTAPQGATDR

T3 sequence (P28222 whole entry): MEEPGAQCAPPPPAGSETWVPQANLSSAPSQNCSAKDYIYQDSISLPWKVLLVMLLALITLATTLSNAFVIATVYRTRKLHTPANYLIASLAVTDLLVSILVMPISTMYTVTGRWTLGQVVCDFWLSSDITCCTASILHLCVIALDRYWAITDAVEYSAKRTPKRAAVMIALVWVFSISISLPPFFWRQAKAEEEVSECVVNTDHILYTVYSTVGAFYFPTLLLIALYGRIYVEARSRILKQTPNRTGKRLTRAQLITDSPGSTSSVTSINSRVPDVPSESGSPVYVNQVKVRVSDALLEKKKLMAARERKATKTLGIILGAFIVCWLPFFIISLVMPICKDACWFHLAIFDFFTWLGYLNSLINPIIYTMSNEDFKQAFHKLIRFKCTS
T6 sequence (P18089 whole entry): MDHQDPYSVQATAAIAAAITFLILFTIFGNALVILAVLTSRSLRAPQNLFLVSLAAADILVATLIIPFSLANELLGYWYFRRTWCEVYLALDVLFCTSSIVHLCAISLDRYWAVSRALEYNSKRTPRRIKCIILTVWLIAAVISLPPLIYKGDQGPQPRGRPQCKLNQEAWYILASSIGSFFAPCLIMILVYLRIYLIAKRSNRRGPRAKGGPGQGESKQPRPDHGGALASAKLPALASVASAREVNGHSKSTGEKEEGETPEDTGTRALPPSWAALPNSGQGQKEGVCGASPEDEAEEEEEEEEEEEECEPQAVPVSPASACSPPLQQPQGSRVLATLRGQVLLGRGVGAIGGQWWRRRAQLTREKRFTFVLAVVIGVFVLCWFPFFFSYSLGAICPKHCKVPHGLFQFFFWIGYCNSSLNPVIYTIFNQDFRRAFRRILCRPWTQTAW
T1 sequence (P28223 whole entry): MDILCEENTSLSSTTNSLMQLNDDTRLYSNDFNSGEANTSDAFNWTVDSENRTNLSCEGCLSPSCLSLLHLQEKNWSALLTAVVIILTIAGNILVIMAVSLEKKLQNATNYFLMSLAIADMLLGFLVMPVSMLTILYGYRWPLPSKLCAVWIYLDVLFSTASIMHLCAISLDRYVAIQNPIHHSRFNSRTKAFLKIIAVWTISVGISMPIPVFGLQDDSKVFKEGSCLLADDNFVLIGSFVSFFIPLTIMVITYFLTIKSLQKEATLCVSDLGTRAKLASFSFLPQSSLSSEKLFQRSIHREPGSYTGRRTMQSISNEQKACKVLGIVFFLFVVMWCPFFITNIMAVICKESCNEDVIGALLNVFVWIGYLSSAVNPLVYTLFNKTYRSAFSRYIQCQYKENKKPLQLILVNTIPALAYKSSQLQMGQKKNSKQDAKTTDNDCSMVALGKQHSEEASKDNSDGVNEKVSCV
T5 sequence (P08913 whole entry): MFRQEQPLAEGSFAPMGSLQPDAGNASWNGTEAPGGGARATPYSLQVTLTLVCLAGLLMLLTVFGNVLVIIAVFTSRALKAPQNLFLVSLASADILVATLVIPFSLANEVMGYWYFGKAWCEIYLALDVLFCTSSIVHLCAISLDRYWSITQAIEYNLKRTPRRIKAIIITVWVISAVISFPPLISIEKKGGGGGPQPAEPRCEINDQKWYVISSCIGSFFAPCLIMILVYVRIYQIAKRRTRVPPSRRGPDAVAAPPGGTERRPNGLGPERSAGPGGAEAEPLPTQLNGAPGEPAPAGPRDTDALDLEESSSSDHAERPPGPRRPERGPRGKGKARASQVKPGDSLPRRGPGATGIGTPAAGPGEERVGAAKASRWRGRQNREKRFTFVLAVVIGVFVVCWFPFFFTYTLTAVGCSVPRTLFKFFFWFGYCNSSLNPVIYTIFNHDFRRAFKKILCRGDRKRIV
T9 sequence (P34969 whole entry): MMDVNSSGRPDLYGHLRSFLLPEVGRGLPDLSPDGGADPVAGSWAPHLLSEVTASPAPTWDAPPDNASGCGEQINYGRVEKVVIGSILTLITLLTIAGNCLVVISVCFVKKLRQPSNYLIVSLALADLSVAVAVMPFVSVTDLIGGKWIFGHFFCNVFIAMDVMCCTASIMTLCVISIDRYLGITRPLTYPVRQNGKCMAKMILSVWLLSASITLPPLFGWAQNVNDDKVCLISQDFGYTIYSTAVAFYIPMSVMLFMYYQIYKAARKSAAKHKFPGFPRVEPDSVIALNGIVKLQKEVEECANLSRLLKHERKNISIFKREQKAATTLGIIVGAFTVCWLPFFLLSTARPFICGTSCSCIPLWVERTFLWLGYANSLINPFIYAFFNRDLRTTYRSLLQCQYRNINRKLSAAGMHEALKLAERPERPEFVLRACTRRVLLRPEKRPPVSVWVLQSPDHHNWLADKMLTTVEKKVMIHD
T11 sequence (P35462 whole entry): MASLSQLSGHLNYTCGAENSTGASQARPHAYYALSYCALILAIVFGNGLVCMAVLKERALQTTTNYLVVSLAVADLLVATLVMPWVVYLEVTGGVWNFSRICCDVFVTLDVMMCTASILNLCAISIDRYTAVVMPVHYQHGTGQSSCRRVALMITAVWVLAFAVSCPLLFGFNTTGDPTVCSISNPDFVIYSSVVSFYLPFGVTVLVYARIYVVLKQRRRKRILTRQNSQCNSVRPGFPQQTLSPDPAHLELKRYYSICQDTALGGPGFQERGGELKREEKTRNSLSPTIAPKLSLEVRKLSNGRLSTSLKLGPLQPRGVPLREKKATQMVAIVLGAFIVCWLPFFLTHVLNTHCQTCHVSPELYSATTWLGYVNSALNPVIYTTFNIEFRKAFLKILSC
T10 sequence (P25100 whole entry): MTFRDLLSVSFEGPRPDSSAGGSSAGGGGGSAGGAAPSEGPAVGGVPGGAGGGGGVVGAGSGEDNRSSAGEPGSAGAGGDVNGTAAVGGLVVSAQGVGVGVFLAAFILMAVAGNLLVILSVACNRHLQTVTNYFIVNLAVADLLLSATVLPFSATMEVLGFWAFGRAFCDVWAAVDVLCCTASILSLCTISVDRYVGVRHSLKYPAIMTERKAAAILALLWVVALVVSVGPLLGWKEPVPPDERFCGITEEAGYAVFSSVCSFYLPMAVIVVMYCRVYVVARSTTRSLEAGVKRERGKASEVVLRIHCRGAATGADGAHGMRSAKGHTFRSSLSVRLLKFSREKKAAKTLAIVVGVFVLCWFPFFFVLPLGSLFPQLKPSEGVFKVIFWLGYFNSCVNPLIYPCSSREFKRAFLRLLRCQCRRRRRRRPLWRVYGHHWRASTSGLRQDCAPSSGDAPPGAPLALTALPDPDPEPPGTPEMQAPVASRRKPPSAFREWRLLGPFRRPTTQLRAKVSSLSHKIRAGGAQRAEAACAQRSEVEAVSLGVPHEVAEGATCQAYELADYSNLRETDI
T8 sequence (P35368 whole entry): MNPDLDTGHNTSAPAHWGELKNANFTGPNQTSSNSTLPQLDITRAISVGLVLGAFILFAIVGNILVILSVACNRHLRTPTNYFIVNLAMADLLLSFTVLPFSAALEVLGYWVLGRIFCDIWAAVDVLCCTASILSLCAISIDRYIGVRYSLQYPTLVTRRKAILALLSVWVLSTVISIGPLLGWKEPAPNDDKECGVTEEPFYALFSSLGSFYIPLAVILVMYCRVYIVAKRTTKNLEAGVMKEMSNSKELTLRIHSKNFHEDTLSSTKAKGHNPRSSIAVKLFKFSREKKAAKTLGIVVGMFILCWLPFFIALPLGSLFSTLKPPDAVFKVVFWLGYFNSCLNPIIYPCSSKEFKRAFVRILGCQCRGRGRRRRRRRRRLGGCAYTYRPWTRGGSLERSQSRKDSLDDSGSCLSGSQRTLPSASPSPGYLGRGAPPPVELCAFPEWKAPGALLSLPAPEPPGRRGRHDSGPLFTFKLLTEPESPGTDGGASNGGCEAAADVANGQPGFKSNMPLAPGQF
Sequence of 5HT1a (P08908 whole entry): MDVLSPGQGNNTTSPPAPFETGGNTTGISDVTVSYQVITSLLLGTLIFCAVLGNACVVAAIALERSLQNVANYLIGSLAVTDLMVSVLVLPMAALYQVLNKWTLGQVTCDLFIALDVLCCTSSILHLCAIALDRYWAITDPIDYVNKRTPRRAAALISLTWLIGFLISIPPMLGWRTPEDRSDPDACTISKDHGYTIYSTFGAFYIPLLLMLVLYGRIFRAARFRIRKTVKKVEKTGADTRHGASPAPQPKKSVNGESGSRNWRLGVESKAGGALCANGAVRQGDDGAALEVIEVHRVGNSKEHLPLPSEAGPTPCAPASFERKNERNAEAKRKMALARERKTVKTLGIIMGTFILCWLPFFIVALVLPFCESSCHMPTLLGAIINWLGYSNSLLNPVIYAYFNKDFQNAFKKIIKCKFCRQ

Row | Receptor (pKi) 5HT2 [1] | Ki [2] [nM] | Receptor (pKi) 5HT1Dβ [3] | Ki [4] [nM] | Receptor (pKi) α2a [5] | Receptor (pKi) α2b [6] | Receptor (pKi) 5HT1F [7] | Receptor (pKi) α1b [8] | Receptor (pKi) 5HT7 [9] | Receptor (pKi) α1d [10] | Receptor (pKi) D3 [11] | Receptor (pKi) 5HT1a [12] | Receptor (pKi) α2c [13] | Receptor (pKi) H2 [14] | SMILES
1 | 6.55 | 11 | ≤ 5.30 | 3550 | 6.74 | 6.58 | ≤ 5.30 | 7.35 | 6.42 | 6.90 | 6.69 | 5.54 |  |  | Cl.O=S(=O)(NCC1CCC(CNCC2CCc3ccccc3C2)CC1)c1cccc2ccccc12 (stereo not shown) [Example 32]
2 | 5.93 | 8.3 | 5.37 | 16000 | 7.31 | 6.96 | ≤ 5.30 | 7.22 | 6.37 | 7.01 | 6.35 |  | 7.39 | 5.85 | Cl.O=[N+]([O-])c1ccccc1S(=O)(=O)NCC1CCC(CNCC2CCc3ccccc3C2)CC1 (stereo not shown) [Example 36]
